Results published in US4080450A, “2-Carbamoyl-1,2,4,5-tetrahydro-3H-2-benzazepin-3-ones” (U C B, Societe Anonyme, priority 1976, dated 1978).
Several values for one entry are separate records, joined by “and”; a condition that tells them apart may be missing. Equal entries are not always repeated. Where two headings read alike, the source gives them in different places.

Experiments:
[1] = spinal fixation time test (elementary model of memory); type: in vivo, rat; conditions: i.p.
Text: Action on the mnemic processes is shown, in particular, by a reduction in the time for spinal fixation, a test which has been described in the literature (C. GIURGEA and F. MOURAVIEFF-LESUISSE, Arch.Int.Pharmacodyn. 191,(2),(1971),279) as an elementary model of memory and which is endowed with a pharmacological reactivity in good correlation with the clinical physiopathology. In the rat, after unilateral lesion of the cerebellum, there is a postural asymmetry of the hind paws. This asymmetry may persist, even after spinal section, if the animal has been in this situation for a sufficiently long period of time. This time, which is called the spinal fixation time, is 45 minutes under the experimental conditions. On the other hand, if spinal section is performed before the expiry of this period, for example 35 minutes after the onset of the asymmetry, the latter disappears. […] Conversely, any compound which allows the rats to retain the asymmetry (thus achieving spinal fixation) when the spinal section is carried out after 35 minutes, is regarded as being active.
Under these conditions, administration of a compound according to the present invention, for example 2-methyl-carbamoyl-1,2,4,5-tetrahydro-3H-2-benzazepin-3-one (compound A) or 4,5-dimethyl-2-methylcarbamoyl-1,2,4,5-tetrahydro-3H-2-benzazepin-3-one(compound B), produces the following effects: […]

[2] = Brevatonal test (protection against hypoxic type aggressions); type: in vivo, mice; conditions: i.p.
Method: At the doses used, this curarizing agent brings about a respiratory depression which, in turn, brings about a hypoxi-hypercapnic syndrome. A compound capable of protecting the brain during this short period of hypoxia ensures survival. The compounds are administered to groups of 10 mice one hour before the injection of the curarizing agent; concurrently herewith, a control group of 10 mice is given a physiological salt solution prior to the curarizing agent. For each compound, the proportion of mice which survive is compared to the proportion of control mice which survive by the "Fisher exact probability test". This test, called the Brevatonal test, has also been developed in our laboratories.
Intraperitoneal administration (i.p.) of compounds according to the present invention, namely, 2-methylcarbamoyl-1,2,4,5-tetrahydro-3H-2-benzazepin-3-one (compound A), 4,5-dimethyl-2-methylcarbamoyl-1,2,4,5-tetrahydro-3H-2-benzazepin-3-one (compound B) and 4-n-butyl-2-methylcarbamoyl-1,2,4,5-tetrahydro-3H-2-benzazepin-3-one (compound I) under these conditions produced the effects summarized in the following Table II.

[3] = active avoidance test (memory retention); type: in vivo, rat; conditions: for minimal effective dose: Rattus norvegicus, sc, subcutaneous, minimum dose which lowers the stimulus to below 110 g
Text: The principle of the active avoidance test, which has been developed in our laboratories and used for this purpose, may be described as follows: the withdrawal reaction of a rat's paw subjected to increasing and measured pressure is observed. The pressure at which the withdrawal reaction is produced is called the reaction threshold. The latter is expressed in grams and thus corresponds to the minimum pressure which, when applied to the paw of the animals causes withdrawal. It is read off directly from a scale on the apparatus used. […] A minimum of 20 rats are used for each test (10 treated rats and 10 control rats), the active dose being defined as the minimum dose which lowers the stimulus to below 110 g.
*Stimulus (expressed in g.) initiating the avoidance reaction 24 hours
after the first stimulation.

[4] = toxicity, lethal dose (LD50); conditions: in vivo, ip; rat, intraperitoneal
Method: The new compounds according to the present invention appear to have a remarkably low toxicity. For example, for compound A, the lethal dose (LD50) in the rat, when administered intraperitoneally, is more than 1000 mg./kg.

[5] = 30 mg./kg. (0.2 mmole/kg.), Giurgea and Mouravieff-Lesuisse, cited from earlier work

Structure (SMILES): CNC(=O)N1Cc2ccccc2[C@@H](C)[C@@H](C)C1=O (relative stereo) [B, 4,5-dimethyl-2-methylcarbamoyl-1,2,4,5-tetrahydro-3H-2-benzazepin-3-one]
- spinal fixation after 35 minutes (animals) ([1]; 24 mg./kg. (0.1 mmole/kg.)): three animals out of seven
- Proportion of survivors, treated animals ([2]; 25 mg./kg. (0.1 mmole/kg.), control 1/10): 7/10
- minimal effective dose [3]: 1.23 mg/kg and 5 µmol/kg
- Stimulus initiating the avoidance reaction 24 hours after the first stimulation ([3]; subcut. dose 0.49 mg./kg., control (dose 0) 152): 124 g
- Stimulus initiating the avoidance reaction 24 hours after the first stimulation ([3]; subcut. dose 1.23 mg./kg., control (dose 0) 152): 107 g

Structure (SMILES): CNC(=O)N1Cc2ccccc2CCC1=O [A, 2-methylcarbamoyl-1,2,4,5-tetrahydro-3H-2-benzazepin-3-one]
- spinal fixation after 35 minutes (animals) ([1]; 70 mg./kg. (0.3 mmole/kg.)): three animals out of five
- Proportion of survivors, treated animals ([2]; 70 mg./kg. (0.32 mmole/kg.), control 1/10): 6/10
- LD50 [4]: > 1000 mg/kg
- minimal effective dose [3]: 2.18 mg/kg and 10 µmol/kg
- Stimulus initiating the avoidance reaction 24 hours after the first stimulation ([3]; subcut. dose 1.09 mg./kg., control (dose 0) 159): 120 g
- Stimulus initiating the avoidance reaction 24 hours after the first stimulation ([3]; subcut. dose 2.18 mg./kg., control (dose 0) 159): 89 g

Structure (SMILES): CC1CC(=O)N(C(=O)N2CCOCC2)Cc2ccccc21 (stereo not shown) [C, 5-methyl-2-morpholinocarbonyl-1,2,4,5-tetrahydro-3H-2-benzazepin-3-one]
- minimal effective dose [3]: 2.88 mg/kg and 10 µmol/kg
- Stimulus initiating the avoidance reaction 24 hours after the first stimulation ([3]; subcut. dose 0.28 mg./kg., control (dose 0) 173): 116 g
- Stimulus initiating the avoidance reaction 24 hours after the first stimulation ([3]; subcut. dose 2.88 mg./kg., control (dose 0) 173): 98 g

Structure (SMILES): CNC(=O)N1Cc2ccc(Cl)cc2CCC1=O [D, 7-chloro-2-methylcarbamoyl-1,2,4,5-tetrahydro-3H-2-benzazepin-3-one]
- minimal effective dose [3]: 2.52 mg/kg and 10 µmol/kg
- Stimulus initiating the avoidance reaction 24 hours after the first stimulation ([3]; subcut. dose 1.26 mg./kg., control (dose 0) 157): 122 g
- Stimulus initiating the avoidance reaction 24 hours after the first stimulation ([3]; subcut. dose 2.52 mg./kg., control (dose 0) 157): 100 g

Structure (SMILES): CNC(=O)N1Cc2ccc(Cl)cc2CC(C)C1=O (stereo not shown) [E, 7-chloro-4-methyl-2-methylcarbamoyl-1,2,4,5-tetrahydro-3H-2-benzazepin-3-one]
- minimal effective dose [3]: 0.53 mg/kg and 2 µmol/kg
- Stimulus initiating the avoidance reaction 24 hours after the first stimulation ([3]; subcut. dose 0.26 mg./kg., control (dose 0) 163): 115 g
- Stimulus initiating the avoidance reaction 24 hours after the first stimulation ([3]; subcut. dose 0.53 mg./kg., control (dose 0) 163): 83 g

Structure (SMILES): CCCCNC(=O)N1Cc2ccccc2CCC1=O [F, 2-n-butylcarbamoyl-1,2,4,5-tetrahydro-3H-2-benzazepin-3-one]
- minimal effective dose [3]: < 0.2 mg/kg and < 0.8 µmol/kg
- Stimulus initiating the avoidance reaction 24 hours after the first stimulation ([3]; subcut. dose 0.2 mg./kg., control (dose 0) 159): 92 g

Structure (SMILES): CCCCNC(=O)N1C(=O)CCc2cc(OC)ccc2C1c1ccccc1 (stereo not shown) [G, 2-n-butylcarbamoyl-7-methoxy-1-phenyl-1,2,4,5-tetrahydro-3H-2-benzazepin-3-one]
- Stimulus initiating the avoidance reaction 24 hours after the first stimulation ([3]; subcut. dose 0.72 mg./kg.): 106 g
- Stimulus initiating the avoidance reaction 24 hours after the first stimulation ([3]; subcut. dose 3.66 mg./kg.): 95 g

Structure (SMILES): CN(C)C(=O)N1Cc2ccccc2CCC1=O [H, 2-dimethylcarbamoyl-1,2,4,5-tetrahydro-3H-2-benzazepin-3-one]
- minimal effective dose [3]: 2.32 mg/kg and 10 µmol/kg
- Stimulus initiating the avoidance reaction 24 hours after the first stimulation ([3]; subcut. dose 2.32 mg./kg.): 90 g

Structure (SMILES): CCCCC1Cc2ccccc2CN(C(=O)NC)C1=O (stereo not shown) [I, 4-n-butyl-2-methylcarbamoyl-1,2,4,5-tetrahydro-3H-2-benzazepin-3-one]
- Proportion of survivors, treated animals ([2]; 27 mg./kg. (0.1 mmole/kg.), control 1/10): 7/10
- Proportion of survivors, treated animals ([2]; 87 mg./kg. (0.32 mmole/kg.), control 1/10): 8/10

Structure (SMILES): NC(=O)CN1CCCC1=O [piracetam, reference compound]
- Proportion of survivors, treated animals ([2]; 45 mg./kg. (0.32 mmole/kg.), control 0/10): 1/10
- Proportion of survivors, treated animals ([2]; 142 mg./kg. (1 mmole/kg.), control 2/10): 4/10
- Proportion of survivors, treated animals ([2]; 454 mg./kg. (3.2 mmole/kg.), control 1/10): 8/10
- spinal fixation after 35 minutes (animals) ([5]; same conditions): four animals out of nine
- activity in spinal fixation test [5]: active
- minimal effective dose [3]: 3.5 mg/kg and 25 µmol/kg
- Stimulus initiating the avoidance reaction 24 hours after the first stimulation ([3]; subcut. dose 1.5 mg./kg., control (dose 0) 153): 120 g
- Stimulus initiating the avoidance reaction 24 hours after the first stimulation ([3]; subcut. dose 3.5 mg./kg., control (dose 0) 153): 90 g
- retention of the earlier test ([3]; tested 24 hours later, versus control animals): significant degree of retention
